According to PubChem BioAssay (NCI):
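Exposure lasted 48 hours, with cells grown in 96-well plates and compounds tested at five concentrations. GI50 marks 50% less growth. TGI denotes the concentration required for complete inhibition of growth.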

Assays:
Experiment in all cases: NCI tumour cell line growth inhibition, 48 h
SK-MEL-28 melanoma = tested on: SK-MEL-28 melanoma
PC-3 prostate = tested on: PC-3 prostate
HCT-15 colon = tested on: HCT-15 colon
EKVX NSCLC = tested on: EKVX NSCLC
COLO 205 colon = tested on: COLO 205 colon
UACC-62 melanoma = tested on: UACC-62 melanoma
DU-145 prostate = tested on: DU-145 prostate
BT-549 breast = tested on: BT-549 breast
SN12C renal = tested on: SN12C renal
SF-539 CNS = tested on: SF-539 CNS
IGROV1 ovarian = tested on: IGROV1 ovarian
RPMI-8226 leukemia = tested on: RPMI-8226 leukemia
KM12 colon = tested on: KM12 colon
MDA-MB-231 breast = tested on: MDA-MB-231 breast
HT29 colon = tested on: HT29 colon
UACC-257 melanoma = tested on: UACC-257 melanoma
SR leukemia = tested on: SR leukemia
U251 CNS = tested on: U251 CNS
UO-31 renal = tested on: UO-31 renal
NCI/ADR-RES ovarian = tested on: NCI/ADR-RES ovarian
SNB-19 CNS = tested on: SNB-19 CNS
HOP-62 NSCLC = tested on: HOP-62 NSCLC
CAKI-1 renal = tested on: CAKI-1 renal
A549 NSCLC = tested on: A549 NSCLC
LOX IMVI melanoma = tested on: LOX IMVI melanoma
MALME-3M melanoma = tested on: MALME-3M melanoma
MDA-MB-435 = tested on: MDA-MB-435
A498 renal = tested on: A498 renal
SF-268 CNS = tested on: SF-268 CNS
OVCAR-5 ovarian = tested on: OVCAR-5 ovarian
T-47D breast = tested on: T-47D breast
HL-60(TB) leukemia = tested on: HL-60(TB) leukemia
MCF7 breast = tested on: MCF7 breast
CCRF-CEM leukemia = tested on: CCRF-CEM leukemia
OVCAR-4 ovarian = tested on: OVCAR-4 ovarian
M14 melanoma = tested on: M14 melanoma
SW-620 colon = tested on: SW-620 colon
NCI-H460 lung = tested on: NCI-H460 lung
SF-295 CNS = tested on: SF-295 CNS
HOP-92 NSCLC = tested on: HOP-92 NSCLC
RXF 393 renal = tested on: RXF 393 renal
SK-MEL-2 melanoma = tested on: SK-MEL-2 melanoma
HS 578T breast = tested on: HS 578T breast
HCC-2998 colon = tested on: HCC-2998 colon
SK-MEL-5 melanoma = tested on: SK-MEL-5 melanoma
SNB-75 CNS = tested on: SNB-75 CNS
786-0 renal = tested on: 786-0 renal
OVCAR-8 ovarian = tested on: OVCAR-8 ovarian
NCI-H522 lung = tested on: NCI-H522 lung
HCT-116 colon = tested on: HCT-116 colon
OVCAR-3 ovarian = tested on: OVCAR-3 ovarian
TK-10 renal = tested on: TK-10 renal
MOLT-4 leukemia = tested on: MOLT-4 leukemia
K-562 leukemia = tested on: K-562 leukemia

Compound `CC1=C2C(=C[C@@](C)(COC(=O)c3ccc(S(=O)(=O)F)cc3)[C@@H]2OC(=O)c2ccc(S(=O)(=O)F)cc2)C(=O)[C@](C)(O)C12CC2` has a GI50 (SK-MEL-28 melanoma) of 1710 nM, a TGI (SK-MEL-28 melanoma) of 3880 nM and a GI50 (PC-3 prostate) of 1070 nM. For the same compound, the TGI (PC-3 prostate) was 11300 nM, the GI50 (HCT-15 colon) was 439 nM and the TGI (HCT-15 colon) was 4420 nM. It also gave a GI50 (EKVX NSCLC) of 3040 nM, a TGI (EKVX NSCLC) of 9330 nM and a GI50 (COLO 205 colon) of 638 nM. For the same compound, the TGI (COLO 205 colon) was 2250 nM, the GI50 (UACC-62 melanoma) was 1640 nM and the TGI (UACC-62 melanoma) was 4000 nM. It also gave a GI50 (DU-145 prostate) of 373 nM, a TGI (DU-145 prostate) of 5480 nM and a GI50 (BT-549 breast) of 1260 nM. It also gave a TGI (BT-549 breast) of 3010 nM, a GI50 (SN12C renal) of 1730 nM and a TGI (SN12C renal) of 11500 nM. The GI50 (SF-539 CNS) was 1560 nM, the TGI (SF-539 CNS) was 3960 nM and the GI50 (IGROV1 ovarian) was 478 nM. The TGI (IGROV1 ovarian) was 6420 nM, the GI50 (RPMI-8226 leukemia) was 3340 nM and the TGI (RPMI-8226 leukemia) was 17500 nM. For the same compound, the GI50 (KM12 colon) was 2950 nM, the TGI (KM12 colon) was 12700 nM and the GI50 (MDA-MB-231 breast) was 1540 nM. The TGI (MDA-MB-231 breast) was 7410 nM, the GI50 (HT29 colon) was 406 nM and the TGI (HT29 colon) was 6400 nM. For the same compound, the GI50 (UACC-257 melanoma) was 1880 nM, the TGI (UACC-257 melanoma) was 3690 nM and the GI50 (SR leukemia) was 480 nM. For the same compound, the TGI (SR leukemia) was 10200 nM, the GI50 (U251 CNS) was 1620 nM and the TGI (U251 CNS) was 5420 nM. It also gave a GI50 (UO-31 renal) of 815 nM, a TGI (UO-31 renal) of 3220 nM and a GI50 (NCI/ADR-RES ovarian) of 698 nM. The TGI (NCI/ADR-RES ovarian) was 9630 nM, the GI50 (SNB-19 CNS) was 2540 nM and the TGI (SNB-19 CNS) was 14200 nM. For the same compound, the GI50 (HOP-62 NSCLC) was 1460 nM, the TGI (HOP-62 NSCLC) was 5880 nM and the GI50 (CAKI-1 renal) was 466 nM. For the same compound, the TGI (CAKI-1 renal) was 10800 nM, the GI50 (A549 NSCLC) was 3040 nM and the TGI (A549 NSCLC) was 9270 nM. The GI50 (LOX IMVI melanoma) was 1150 nM, the TGI (LOX IMVI melanoma) was 6380 nM and the GI50 (MALME-3M melanoma) was 1160 nM. It also gave a TGI (MALME-3M melanoma) of 2940 nM, a GI50 (MDA-MB-435) of 1480 nM and a TGI (MDA-MB-435) of 3710 nM. It also gave a GI50 (A498 renal) of 1820 nM, a TGI (A498 renal) of 4290 nM and a GI50 (SF-268 CNS) of 705 nM. The TGI (SF-268 CNS) was 9100 nM, the GI50 (OVCAR-5 ovarian) was 558 nM and the TGI (OVCAR-5 ovarian) was 4330 nM. The GI50 (T-47D breast) was 1230 nM, the TGI (T-47D breast) was 4500 nM and the GI50 (HL-60(TB) leukemia) was 433 nM. The TGI (HL-60(TB) leukemia) was 3140 nM, the GI50 (MCF7 breast) was 342 nM and the TGI (MCF7 breast) was 3960 nM. It also gave a GI50 (CCRF-CEM leukemia) of 2280 nM, a TGI (CCRF-CEM leukemia) of 15300 nM and a GI50 (OVCAR-4 ovarian) of 1780 nM. For the same compound, the TGI (OVCAR-4 ovarian) was 7510 nM, the GI50 (M14 melanoma) was 1360 nM and the TGI (M14 melanoma) was 3320 nM. The GI50 (SW-620 colon) was 607 nM, the TGI (SW-620 colon) was 10200 nM and the GI50 (NCI-H460 lung) was 206 nM. The TGI (NCI-H460 lung) was 480 nM, the GI50 (SF-295 CNS) was 2400 nM and the TGI (SF-295 CNS) was 7630 nM. It also gave a GI50 (HOP-92 NSCLC) of 2110 nM, a TGI (HOP-92 NSCLC) of 5620 nM and a GI50 (RXF 393 renal) of 337 nM. It also gave a TGI (RXF 393 renal) of 965 nM, a GI50 (SK-MEL-2 melanoma) of 1760 nM and a TGI (SK-MEL-2 melanoma) of 3410 nM. It also gave a GI50 (HS 578T breast) of 2370 nM, a TGI (HS 578T breast) of 6630 nM and a GI50 (HCC-2998 colon) of 1310 nM. The TGI (HCC-2998 colon) was 3060 nM, the GI50 (SK-MEL-5 melanoma) was 1480 nM and the TGI (SK-MEL-5 melanoma) was 2920 nM. It also gave a GI50 (SNB-75 CNS) of 1350 nM, a TGI (SNB-75 CNS) of 2660 nM and a GI50 (786-0 renal) of 1400 nM. It also gave a TGI (786-0 renal) of 4680 nM, a GI50 (OVCAR-8 ovarian) of 631 nM and a TGI (OVCAR-8 ovarian) of 4010 nM. It also gave a GI50 (NCI-H522 lung) of 474 nM, a TGI (NCI-H522 lung) of 2100 nM and a GI50 (HCT-116 colon) of 319 nM. It also gave a TGI (HCT-116 colon) of 1920 nM, a GI50 (OVCAR-3 ovarian) of 549 nM and a TGI (OVCAR-3 ovarian) of 3900 nM. For the same compound, the GI50 (TK-10 renal) was 2750 nM, the TGI (TK-10 renal) was 6870 nM and the GI50 (MOLT-4 leukemia) was 1010 nM. For the same compound, the TGI (MOLT-4 leukemia) was 8730 nM, the GI50 (K-562 leukemia) was 733 nM and the TGI (K-562 leukemia) was 13000 nM.
